# From PubChem BioAssay (NCI)
#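 A five-concentration, 48-hour dose response in 96-well plates underlies each endpoint, interpolated linearly between surrounding concentrations. Definition used: TGI = concentration required for complete inhibition of growth.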
# Columns and labels:
# Assay in all cases: inhibition of tumour cell growth, NCI panel, 48 h
# [1] = system: 786-0 renal
# [2] = system: A498 renal
# [3] = system: A549 NSCLC
# [4] = system: ACHN renal
# [5] = system: CAKI-1 renal
# [6] = system: CCRF-CEM leukemia
# [7] = system: COLO 205 colon
# [8] = system: DLD-1 colon
# [9] = system: DMS 114 small cell lung
# [10] = system: DMS 273 small cell lung
# [11] = system: EKVX NSCLC
# [12] = system: HCC-2998 colon
# [13] = system: HCT-116 colon
# [14] = system: HCT-15 colon
# [15] = system: HL-60(TB) leukemia
# [16] = system: HOP-62 NSCLC
# [17] = system: HT29 colon
# [18] = system: IGROV1 ovarian
# [19] = system: K-562 leukemia
# [20] = system: KM12 colon
# [21] = system: KM20L2 colon
# [22] = system: LOX IMVI melanoma
# [23] = system: LXFL 529 NSCLC
# [24] = system: M14 melanoma
# [25] = system: MALME-3M melanoma
# [26] = system: MOLT-4 leukemia
# [27] = system: NCI-H226 lung
# [28] = system: NCI-H23 lung
# [29] = system: NCI-H460 lung
# [30] = system: NCI-H522 lung
# [31] = system: OVCAR-3 ovarian
# [32] = system: OVCAR-4 ovarian
# [33] = system: OVCAR-5 ovarian
# [34] = system: OVCAR-8 ovarian
# [35] = system: RPMI-8226 leukemia
# [36] = system: SF-268 CNS
# [37] = system: SF-295 CNS
# [38] = system: SF-539 CNS
# [39] = system: SK-MEL-2 melanoma
# [40] = system: SK-MEL-5 melanoma
# [41] = system: SK-OV-3 ovarian
# [42] = system: SN12C renal
# [43] = system: SNB-19 CNS
# [44] = system: SNB-78 CNS
# [45] = system: SR leukemia
# [46] = system: SW-620 colon
# [47] = system: TK-10 renal
# [48] = system: U251 CNS
# [49] = system: UACC-257 melanoma
# [50] = system: UACC-62 melanoma
# [51] = system: UO-31 renal
# [52] = system: BT-549 breast
# [53] = system: DU-145 prostate
# [54] = system: HOP-92 NSCLC
# [55] = system: HS 578T breast
# [56] = system: MCF7 breast
# [57] = system: MDA-MB-231 breast
# [58] = system: MDA-MB-435
# [59] = system: MDA-N
# [60] = system: NCI/ADR-RES ovarian
# [61] = system: PC-3 prostate
# [62] = system: RXF 393 renal
# [63] = system: SK-MEL-28 melanoma
# [64] = system: SNB-75 CNS
# [65] = system: T-47D breast
structure (smiles),measurement,setting,value
COC(=O)[C@]1(C)CCC[C@]2(C)C3CC4OOC3(C=C4C(C)C)CCC21 (stereo partly drawn),TGI,[1],17.6 µM
same,TGI,[2],23.5 µM
same,TGI,[3],33.9 µM
same,TGI,[4],31.2 µM
same,TGI,[5],62.3 µM
same,TGI,[6],14 µM
same,TGI,[7],39.4 µM
same,TGI,[8],29.1 µM
same,TGI,[9],28 µM
same,TGI,[10],34.5 µM
same,TGI,[11],30.4 µM
same,TGI,[12],30.4 µM
same,TGI,[13],29 µM
same,TGI,[14],30.1 µM
same,TGI,[15],4.15 µM
same,TGI,[16],61.5 µM
same,TGI,[17],29.4 µM
same,TGI,[18],35.7 µM
same,TGI,[19],33.7 µM
same,TGI,[20],32.4 µM
same,TGI,[21],32 µM
same,TGI,[22],11.5 µM
same,TGI,[23],27.2 µM
same,TGI,[24],30.4 µM
same,TGI,[25],41.6 µM
same,TGI,[26],49.8 µM
same,TGI,[27],35.4 µM
same,TGI,[28],32.8 µM
same,TGI,[29],25.7 µM
same,TGI,[30],3.41 µM
same,TGI,[31],76.6 µM
same,TGI,[32],45.7 µM
same,TGI,[33],41.5 µM
same,TGI,[34],41.8 µM
same,TGI,[35],36 µM
same,TGI,[36],30.1 µM
same,TGI,[37],31.3 µM
same,TGI,[38],30.7 µM
same,TGI,[39],31.5 µM
same,TGI,[40],29.6 µM
same,TGI,[41],34.4 µM
same,TGI,[42],31.7 µM
same,TGI,[43],31.3 µM
same,TGI,[44],32.3 µM
same,TGI,[45],26.6 µM
same,TGI,[46],34.8 µM
same,TGI,[47],82.1 µM
same,TGI,[48],37.1 µM
same,TGI,[49],32 µM
same,TGI,[50],32.3 µM
same,TGI,[51],30.3 µM
CN(CCNC(=O)c1cc(-c2ccccc2)nc2ccccc12)CCNC(=O)c1cc(-c2ccccc2)nc2ccccc12,TGI,[1],23.5 µM
same,TGI,[2],37.6 µM
same,TGI,[3],> 100 µM
same,TGI,[4],> 100 µM
same,TGI,[52],> 100 µM
same,TGI,[5],> 100 µM
same,TGI,[6],> 100 µM
same,TGI,[7],4.71 µM
same,TGI,[53],> 95.5 µM
same,TGI,[11],> 87.8 µM
same,TGI,[12],5.54 µM
same,TGI,[13],> 46.4 µM
same,TGI,[14],> 100 µM
same,TGI,[15],24.9 µM
same,TGI,[16],> 100 µM
same,TGI,[54],14.7 µM
same,TGI,[55],99.4 µM
same,TGI,[17],4.74 µM
same,TGI,[18],> 100 µM
same,TGI,[19],> 36.7 µM
same,TGI,[20],> 40.5 µM
same,TGI,[22],16 µM
same,TGI,[24],4.66 µM
same,TGI,[25],4.09 µM
same,TGI,[56],42 µM
same,TGI,[57],> 100 µM
same,TGI,[58],13.1 µM
same,TGI,[59],32.2 µM
same,TGI,[26],> 100 µM
same,TGI,[27],55.5 µM
same,TGI,[28],> 100 µM
same,TGI,[29],> 100 µM
same,TGI,[30],> 47.5 µM
same,TGI,[60],> 100 µM
same,TGI,[31],> 100 µM
same,TGI,[32],> 100 µM
same,TGI,[33],> 55.7 µM
same,TGI,[34],> 100 µM
same,TGI,[61],> 100 µM
same,TGI,[35],> 100 µM
same,TGI,[62],> 57.7 µM
same,TGI,[36],> 100 µM
same,TGI,[37],90.5 µM
same,TGI,[38],21.3 µM
same,TGI,[39],24.9 µM
same,TGI,[63],5.29 µM
same,TGI,[40],5.7 µM
same,TGI,[41],> 100 µM
same,TGI,[42],> 100 µM
same,TGI,[43],> 100 µM
same,TGI,[64],39.9 µM
same,TGI,[45],7.63 µM
same,TGI,[46],24.9 µM
same,TGI,[65],> 100 µM
same,TGI,[47],> 100 µM
same,TGI,[48],30.9 µM
same,TGI,[49],10.2 µM
same,TGI,[50],39.5 µM
same,TGI,[51],> 100 µM
CC1=C/C(=C(/c2ccc(O)c(C)c2)c2ccccc2C(=O)O)C=CC1=O,TGI,[1],33.7 µM
same,TGI,[2],32.8 µM
same,TGI,[3],35.3 µM
same,TGI,[4],32.2 µM
same,TGI,[52],39 µM
same,TGI,[5],32 µM
same,TGI,[6],45.1 µM
same,TGI,[7],34.3 µM
same,TGI,[53],35.6 µM
same,TGI,[11],36 µM
same,TGI,[12],34.5 µM
same,TGI,[13],32.8 µM
same,TGI,[14],42.7 µM
same,TGI,[15],43.6 µM
same,TGI,[16],38 µM
same,TGI,[54],34.8 µM
same,TGI,[55],52 µM
same,TGI,[17],42.8 µM
same,TGI,[18],34.1 µM
same,TGI,[19],44.7 µM
same,TGI,[20],36.6 µM
same,TGI,[22],35.9 µM
same,TGI,[24],32.5 µM
same,TGI,[25],46.8 µM
same,TGI,[56],34.5 µM
same,TGI,[57],40.4 µM
same,TGI,[58],33.3 µM
same,TGI,[59],33.2 µM
same,TGI,[26],43.1 µM
same,TGI,[27],44.5 µM
same,TGI,[28],36.6 µM
same,TGI,[29],> 100 µM
same,TGI,[30],42.7 µM
same,TGI,[60],80.5 µM
same,TGI,[31],33.2 µM
same,TGI,[32],33.9 µM
same,TGI,[33],42.3 µM
same,TGI,[34],36.3 µM
same,TGI,[61],35.9 µM
same,TGI,[35],46 µM
same,TGI,[62],33.8 µM
same,TGI,[36],57.1 µM
same,TGI,[37],44.2 µM
same,TGI,[38],35.2 µM
same,TGI,[39],38.5 µM
same,TGI,[63],40 µM
same,TGI,[40],34.9 µM
same,TGI,[41],35.1 µM
same,TGI,[42],36.7 µM
same,TGI,[43],32.2 µM
same,TGI,[64],35.8 µM
same,TGI,[45],47 µM
same,TGI,[46],39 µM
same,TGI,[65],72.1 µM
same,TGI,[47],31.1 µM
same,TGI,[48],32.1 µM
same,TGI,[49],35.8 µM
same,TGI,[50],30.9 µM
same,TGI,[51],33.6 µM
Cc1ccc2nc(Cl)c(/C=N/N3C(=O)/C(=C/Cc4ccco4)N=C3c3ccccc3)cc2c1,TGI,[1],47.3 µM
same,TGI,[2],> 100 µM
same,TGI,[3],> 93.5 µM
same,TGI,[4],> 100 µM
same,TGI,[52],> 90.9 µM
same,TGI,[5],> 100 µM
same,TGI,[6],> 100 µM
same,TGI,[7],> 100 µM
same,TGI,[53],> 79.5 µM
same,TGI,[11],98.7 µM
same,TGI,[12],75.8 µM
same,TGI,[13],39.3 µM
same,TGI,[14],> 97.1 µM
same,TGI,[15],55.9 µM
same,TGI,[16],> 100 µM
same,TGI,[54],66.5 µM
same,TGI,[55],> 86.2 µM
same,TGI,[17],> 79.4 µM
same,TGI,[18],53.9 µM
same,TGI,[19],> 100 µM
same,TGI,[20],> 93.6 µM
same,TGI,[22],> 69.3 µM
same,TGI,[24],73.9 µM
same,TGI,[25],> 100 µM
same,TGI,[56],> 93.9 µM
same,TGI,[57],> 100 µM
same,TGI,[58],5.29 µM
same,TGI,[59],39.6 µM
same,TGI,[26],> 92 µM
same,TGI,[27],> 100 µM
same,TGI,[28],> 84.5 µM
same,TGI,[29],75.9 µM
same,TGI,[30],74 µM
same,TGI,[60],> 90.5 µM
same,TGI,[31],> 100 µM
same,TGI,[32],> 100 µM
same,TGI,[33],> 100 µM
same,TGI,[34],> 68.2 µM
same,TGI,[61],> 100 µM
same,TGI,[35],61.8 µM
same,TGI,[62],> 100 µM
same,TGI,[36],70.6 µM
same,TGI,[37],> 100 µM
same,TGI,[38],88.4 µM
same,TGI,[39],> 100 µM
same,TGI,[63],> 100 µM
same,TGI,[40],> 100 µM
same,TGI,[41],> 100 µM
same,TGI,[42],> 69.6 µM
same,TGI,[43],> 90.9 µM
same,TGI,[64],> 92.8 µM
same,TGI,[45],> 100 µM
same,TGI,[46],> 100 µM
same,TGI,[65],> 100 µM
same,TGI,[47],55.5 µM
same,TGI,[48],> 100 µM
same,TGI,[49],71.8 µM
same,TGI,[50],> 100 µM
same,TGI,[51],> 74.7 µM
